Conditions: 30 mg per ml solutions

CN1CC[C@]23c4c5ccc(O)c4O[C@H]2[C@@H](O)C=C[C@H]3[C@H]1C5.O=S(=O)(O)O [Morphine sulphate]
effectiveness of nasal solution: effective

From patent publication US7335186B2 (priority 1998, dated 2008)
